Measurements reported in ChEMBL document CHEMBL1137465, “Cytostatic evaluations of nucleoside analogs related to unnatural base pairs for a genetic expansion system” (Bioorg Med Chem Lett, 2007).

How the values were obtained:
[1] = tested on: HT-1080; test: Cytostatic activity against human HT1080 cells at 500 uM by MTT assay; format: functional
[2] = Cytostatic activity against human WI38 cells at 500 uM by MTT assay; format: ADME, cell-based, WI-38
[3] = Cytostatic activity against human WI38 cells MTT assay; format: ADME, cell-based; conditions: WI-38
[4] = tested on: WI-38; test: Cytostatic activity against human WI38 cells assessed as relative percent survival at 25 uM by MTT assay; format: functional; conditions: read-out: Survival
[5] = Cytostatic activity against human WI38 cells assessed as relative percent survival at 5 uM by MTT assay; format: ADME, cell-based, WI-38; conditions: read-out: Survival
[6] = tested on: HT-1080; test: Cytostatic activity against human HT1080 cells assessed as relative percent survival at 25 uM by MTT assay; format: functional; conditions: read-out: Survival
[7] = tested on: HT-1080; test: Cytostatic activity against human HT1080 cells assessed as relative percent survival at 5 uM by MTT assay; format: functional; conditions: read-out: Survival
[8] = tested on: CCRF-CEM; test: Cytostatic activity against human CCRFCEM cells by MTT assay; format: functional, cell-based
[9] = tested on: HT-1080; test: Cytostatic activity against human HT1080 cells by MTT assay; format: functional, cell-based
[10] = tested on: CCRF-CEM; test: Cytostatic activity against human CCRFCEM cells at 500 uM by MTT assay; format: functional

Compound | inhibition at 500 µM [1] [%] | inhibition at 500 µM [2] [%] | IC50 [3] [µM] | IC50 [8] [µM] | IC50 [9] [µM] | inhibition at 500 µM [10] [%] | also measured
O=c1[nH]cccc1[C@H]1C[C@H](O)[C@@H](CO)O1 | < 50 | < 50 | – | – | – | – | –
Nc1nc(-c2cccs2)c2ncn([C@H]3C[C@H](O)[C@@H](CO)O3)c2n1 | – | – | 500 | 340 | 38 | – | viability at 25 µM [4]: 91%; viability at 5 µM [5]: 92%; viability at 25 µM [6]: 69%; viability at 5 µM [7]: 97%
Nc1nc(-c2cccs2)c2ncn([C@@H]3O[C@H](CO)[C@@H](O)[C@H]3O)c2n1 | – | < 50 | – | – | 88 | < 50 | –
OC[C@H]1O[C@@H](n2cnc3c(-c4cccs4)ncnc32)[C@H](O)[C@@H]1O | – | – | 5.7 | 2.3 | 0.33 | – | –
OC[C@H]1O[C@@H](n2cnc3c(-c4cccs4)ccnc32)C[C@@H]1O | – | – | 190 | 120 | 56 | – | –
O=Cc1cccn1[C@@H]1O[C@H](CO)[C@@H](O)[C@H]1O | < 50 | < 50 | – | – | – | < 50 | –
O=c1[nH]cccc1[C@@H]1O[C@H](CO)[C@@H](O)[C@H]1O | < 50 | < 50 | – | – | – | – | –
OC[C@H]1O[C@@H](n2cnc3c(-c4cccs4)ccnc32)[C@H](O)[C@@H]1O | – | – | 310 | 230 | 190 | – | –
OC[C@H]1O[C@@H](n2cnc3c(-c4cccs4)ncnc32)C[C@@H]1O | – | < 50 | – | 420 | 95 | – | –
Nc1nc(-c2ccco2)c2ncn([C@H]3C[C@H](O)[C@@H](CO)O3)c2n1 | – | < 50 | – | – | 290 | < 50 | –
OC[C@H]1O[C@@H](n2cnc3c(-c4ccco4)ncnc32)C[C@@H]1O | – | < 50 | – | – | 330 | < 50 | –
O=Cc1cccn1[C@H]1C[C@H](O)[C@@H](CO)O1 | < 50 | < 50 | – | – | – | < 50 | –
O=c1[nH]c(=O)n([C@H]2C[C@H](O)[C@@H](CO)O2)cc1F [FLOXURIDINE] | – | – | 500 | 0.29 | 0.18 | – | –
